Results: PubChem BioAssay (NCI)
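Each compound was tested at five concentrations against cells in 96-well plates for 48 hours. GI50 = concentration required for 50% inhibition of growth. The concentration for full growth arrest is given as TGI.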

Tests used:
Assay in all cases: growth of human tumour cells (NCI), 48 h; in the data active = GI50 below about 0.43 µM; inactive = the rest
MALME-3M melanoma = test system: MALME-3M melanoma
SF-295 CNS = test system: SF-295 CNS
SNB-75 CNS = test system: SNB-75 CNS
COLO 205 colon = test system: COLO 205 colon
BT-549 breast = test system: BT-549 breast
HS 578T breast = test system: HS 578T breast
A498 renal = test system: A498 renal
U251 CNS = test system: U251 CNS
RPMI-8226 leukemia = test system: RPMI-8226 leukemia
HCC-2998 colon = test system: HCC-2998 colon
NCI-H23 lung = test system: NCI-H23 lung
KM12 colon = test system: KM12 colon
SW-620 colon = test system: SW-620 colon
MDA-MB-435 = test system: MDA-MB-435
SNB-19 CNS = test system: SNB-19 CNS
HOP-62 NSCLC = test system: HOP-62 NSCLC
EKVX NSCLC = test system: EKVX NSCLC
MCF7 breast = test system: MCF7 breast
OVCAR-5 ovarian = test system: OVCAR-5 ovarian
SK-OV-3 ovarian = test system: SK-OV-3 ovarian
K-562 leukemia = test system: K-562 leukemia
MOLT-4 leukemia = test system: MOLT-4 leukemia
SF-268 CNS = test system: SF-268 CNS
SK-MEL-28 melanoma = test system: SK-MEL-28 melanoma
M14 melanoma = test system: M14 melanoma
NCI-H226 lung = test system: NCI-H226 lung
NCI/ADR-RES ovarian = test system: NCI/ADR-RES ovarian
SF-539 CNS = test system: SF-539 CNS
ACHN renal = test system: ACHN renal
NCI-H460 lung = test system: NCI-H460 lung
SK-MEL-2 melanoma = test system: SK-MEL-2 melanoma
DU-145 prostate = test system: DU-145 prostate
OVCAR-8 ovarian = test system: OVCAR-8 ovarian
UO-31 renal = test system: UO-31 renal
HCT-15 colon = test system: HCT-15 colon
OVCAR-3 ovarian = test system: OVCAR-3 ovarian
786-0 renal = test system: 786-0 renal
UACC-62 melanoma = test system: UACC-62 melanoma
RXF 393 renal = test system: RXF 393 renal
LOX IMVI melanoma = test system: LOX IMVI melanoma
MDA-MB-468 breast = test system: MDA-MB-468 breast
CCRF-CEM leukemia = test system: CCRF-CEM leukemia
SK-MEL-5 melanoma = test system: SK-MEL-5 melanoma
TK-10 renal = test system: TK-10 renal
UACC-257 melanoma = test system: UACC-257 melanoma
HCT-116 colon = test system: HCT-116 colon
NCI-H522 lung = test system: NCI-H522 lung
HL-60(TB) leukemia = test system: HL-60(TB) leukemia
HOP-92 NSCLC = test system: HOP-92 NSCLC
PC-3 prostate = test system: PC-3 prostate
OVCAR-4 ovarian = test system: OVCAR-4 ovarian
SN12C renal = test system: SN12C renal
A549 NSCLC = test system: A549 NSCLC
T-47D breast = test system: T-47D breast
HT29 colon = test system: HT29 colon
CAKI-1 renal = test system: CAKI-1 renal
IGROV1 ovarian = test system: IGROV1 ovarian
MDA-MB-231 breast = test system: MDA-MB-231 breast
SR leukemia = test system: SR leukemia

O=C(COc1ccc(NC(=O)Nc2ccc(Cl)cc2)cc1)N=Nc1c(O)[nH]c2ccc([N+](=O)[O-])cc12
30.2 µM: TGI (T-47D breast)
13.6 µM: TGI (HCT-116 colon)
43.2 µM: TGI (A498 renal)
18.7 µM: TGI (SF-268 CNS)
24.8 µM: TGI (OVCAR-4 ovarian)
30.6 µM: TGI (HOP-62 NSCLC)
59.7 µM: TGI (TK-10 renal)
23.9 µM: TGI (SN12C renal)
26.8 µM: TGI (RXF 393 renal)
18.3 µM: TGI (NCI-H23 lung)
inactive: GI50 (MALME-3M melanoma) 2600 nM | GI50 (SF-295 CNS) 16.5 µM | GI50 (SNB-75 CNS) 4.82 µM | GI50 (COLO 205 colon) 5.21 µM | GI50 (BT-549 breast) 14.2 µM | GI50 (HS 578T breast) 2960 nM | GI50 (A498 renal) 21.1 µM | GI50 (U251 CNS) 6.42 µM | GI50 (RPMI-8226 leukemia) 7.3 µM | GI50 (HCC-2998 colon) 6.18 µM | GI50 (NCI-H23 lung) 5.79 µM | GI50 (KM12 colon) 1950 nM | GI50 (SW-620 colon) 3.34 µM | GI50 (MDA-MB-435) 3.7 µM | GI50 (SNB-19 CNS) 10.1 µM | GI50 (HOP-62 NSCLC) 14.3 µM | GI50 (EKVX NSCLC) 22.3 µM | GI50 (MCF7 breast) 2060 nM | GI50 (OVCAR-5 ovarian) 24 µM | GI50 (SK-OV-3 ovarian) 21.6 µM | GI50 (K-562 leukemia) 8.47 µM | GI50 (MOLT-4 leukemia) 5.25 µM | GI50 (SF-268 CNS) 4.81 µM | GI50 (SK-MEL-28 melanoma) 2490 nM | GI50 (M14 melanoma) 5.83 µM | GI50 (NCI-H226 lung) 4.12 µM | GI50 (NCI/ADR-RES ovarian) > 100 µM | GI50 (SF-539 CNS) 3.36 µM | GI50 (ACHN renal) 26.8 µM | GI50 (NCI-H460 lung) 3.07 µM | GI50 (SK-MEL-2 melanoma) 7.09 µM | GI50 (DU-145 prostate) 10.3 µM | GI50 (OVCAR-8 ovarian) 12.7 µM | GI50 (UO-31 renal) > 100 µM | GI50 (HCT-15 colon) > 100 µM | GI50 (OVCAR-3 ovarian) 2250 nM | GI50 (786-0 renal) 15.6 µM | GI50 (UACC-62 melanoma) 6.99 µM | GI50 (RXF 393 renal) 5.69 µM | GI50 (LOX IMVI melanoma) 3.21 µM | GI50 (MDA-MB-468 breast) 1980 nM | GI50 (CCRF-CEM leukemia) 2560 nM | GI50 (SK-MEL-5 melanoma) 12.4 µM | GI50 (TK-10 renal) 23.7 µM | GI50 (UACC-257 melanoma) 20.1 µM | GI50 (HCT-116 colon) 3.65 µM | GI50 (NCI-H522 lung) 2400 nM | GI50 (HL-60(TB) leukemia) > 100 µM | GI50 (HOP-92 NSCLC) 3.01 µM | GI50 (PC-3 prostate) 6.59 µM | GI50 (OVCAR-4 ovarian) 3.95 µM | GI50 (SN12C renal) 4.74 µM | GI50 (A549 NSCLC) > 100 µM | GI50 (T-47D breast) 4 µM | GI50 (HT29 colon) 6.81 µM | GI50 (CAKI-1 renal) 69.7 µM | GI50 (IGROV1 ovarian) 13.6 µM | GI50 (MDA-MB-231 breast) 2840 nM | GI50 (SR leukemia) 18 µM
26.6 µM: TGI (UACC-62 melanoma)
20.3 µM: TGI (SK-MEL-2 melanoma)
> 100 µM: TGI (COLO 205 colon) | TGI (RPMI-8226 leukemia) | TGI (HCC-2998 colon) | TGI (SW-620 colon) | TGI (EKVX NSCLC) | TGI (OVCAR-5 ovarian) | TGI (K-562 leukemia) | TGI (MOLT-4 leukemia) | TGI (M14 melanoma) | TGI (NCI/ADR-RES ovarian) | TGI (ACHN renal) | TGI (DU-145 prostate) | TGI (OVCAR-8 ovarian) | TGI (UO-31 renal) | TGI (HCT-15 colon) | TGI (SK-MEL-5 melanoma) | TGI (UACC-257 melanoma) | TGI (HL-60(TB) leukemia) | TGI (PC-3 prostate) | TGI (A549 NSCLC) | TGI (HT29 colon) | TGI (CAKI-1 renal) | TGI (SR leukemia)
12.4 µM: TGI (HOP-92 NSCLC)
8.74 µM: TGI (MALME-3M melanoma)
29.8 µM: TGI (BT-549 breast)
8.18 µM: TGI (CCRF-CEM leukemia)
6.36 µM: TGI (MCF7 breast)
20.5 µM: TGI (MDA-MB-435)
11 µM: TGI (KM12 colon)
24.2 µM: TGI (SNB-75 CNS) | TGI (NCI-H226 lung)
6.58 µM: TGI (OVCAR-3 ovarian)
7.97 µM: TGI (SK-MEL-28 melanoma)
23.6 µM: TGI (SNB-19 CNS)
4.82 µM: TGI (MDA-MB-468 breast)
9.44 µM: TGI (MDA-MB-231 breast)
19.6 µM: TGI (U251 CNS)
15.3 µM: TGI (SF-539 CNS)
33.9 µM: TGI (NCI-H460 lung)
55.8 µM: TGI (SK-OV-3 ovarian)
8.03 µM: TGI (NCI-H522 lung)
30.7 µM: TGI (IGROV1 ovarian)
11.5 µM: TGI (LOX IMVI melanoma)
15.8 µM: TGI (HS 578T breast)
34 µM: TGI (SF-295 CNS)
34.6 µM: TGI (786-0 renal)
